Measurements: the supplement of paper PMC10307832

Columns and labels:
Assay in all cases: relative viability (nuclei count vs DMSO), 5 days (fraction); higher = more cells survive
[1] = compound: Cn1cc(-c2cnn3c(N)c(Br)c([C@@H]4CCCNC4)nc23)cn1 + CC(=O)c1c(C)c2cnc(Nc3ccc(N4CCNCC4)cn3)nc2n(C2CCCC2)c1=O [Palbociclib] (partner 0.5 µM)
Procedure, shortened: (§1)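 Cells from lung cancer lines were seeded into 1536-well plates and, one day later, dosed by pin tool. Treatments were either a single drug or a fixed dose of an anchor drug with five library-drug doses (not always all listed) in √10 steps. After 5 days, nuclei were stained in a one-step fixation (final 0.05% Triton X-100, 1% formaldehyde, 1 ug/ml Hoechst) and counted on 4× images, and relative viability is the treated-to-vehicle nuclei ratio, as the median of duplicate plates.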

[2] = compound: Cn1cc(-c2cnn3c(N)c(Br)c([C@@H]4CCCNC4)nc23)cn1 + CC(C)C[C@H](NC(=O)[C@H](Cc1ccccc1)NC(=O)c1cnccn1)B(O)O [Bortezomib] (partner 0.002 µM)
Procedure, shortened: as §1

[3] = compound: Cn1cc(-c2cnn3c(N)c(Br)c([C@@H]4CCCNC4)nc23)cn1 + Cc1nc(NC(=O)N2CCC[C@H]2C(N)=O)sc1-c1ccnc(C(C)(C)C(F)(F)F)c1 [Alpelisib] (partner 2 µM)
Procedure, shortened: as §1

[4] = compound: Cn1cc(-c2cnn3c(N)c(Br)c([C@@H]4CCCNC4)nc23)cn1 + Cc1nc(Nc2ncc(C(=O)Nc3c(C)cccc3Cl)s2)cc(N2CCN(CCO)CC2)n1 [Dasatinib] (partner 0.075 µM)
Procedure, shortened: as §1

Row | Cell Line | relative viability ([1]; first compound 0.05 µM) | relative viability ([1]; first compound 0.1581 µM) | relative viability ([1]; first compound 0.5 µM) | relative viability ([1]; first compound 1.581 µM) | relative viability ([1]; first compound 5 µM) | relative viability ([2]; first compound 0.05 µM) | relative viability ([2]; first compound 0.1581 µM) | relative viability ([2]; first compound 0.5 µM) | relative viability ([2]; first compound 1.581 µM) | relative viability ([2]; first compound 5 µM) | relative viability ([3]; first compound 0.05 µM) | relative viability ([3]; first compound 0.1581 µM) | relative viability ([3]; first compound 0.5 µM) | relative viability ([3]; first compound 1.581 µM) | relative viability ([3]; first compound 5 µM) | relative viability ([4]; first compound 0.05 µM) | relative viability ([4]; first compound 0.1581 µM) | relative viability ([4]; first compound 0.5 µM) | relative viability ([4]; first compound 1.581 µM) | relative viability ([4]; first compound 5 µM)
1 | HCC-15 | 0.71 | 0.785 | 0.721 | 0.604 | 0.591 | 1.16 | 1.18 | 1.03 | 0.788 | 1.11 | 0.981 | 1.01 | 0.863 | 0.782 | 0.901 | 0.706 | 0.633 | 0.511 | 0.464 | 0.483
2 | PC-3 [JPC-3] | 0.499 | 0.53 | – | 0.512 | 0.562 | 0.818 | 0.834 | 0.76 | 0.755 | 0.907 | 1.12 | 1.13 | 1.13 | 0.965 | 1.12 | 1.02 | 1.09 | 0.826 | 0.775 | 1.01
3 | NCI-H1993 | 0.645 | 0.704 | 0.584 | 0.564 | 0.471 | 1.09 | 1.16 | – | 0.931 | 0.846 | 0.632 | 0.7 | – | 0.66 | 0.708 | 0.619 | 0.601 | 0.545 | 0.549 | 0.507
4 | NCI-H1915 | 0.591 | 0.562 | 0.522 | 0.508 | 0.543 | 1.14 | 1.01 | 1.06 | 0.784 | 1.03 | 1.01 | 1.08 | 1.03 | 1.08 | 1.1 | 0.307 | 0.351 | 0.355 | 0.347 | 0.283
5 | RERF-LC-KJ | 0.983 | 1.04 | 1.03 | 0.863 | 0.712 | 1.12 | 1.17 | 1.02 | 0.96 | 0.953 | 0.849 | 0.846 | 0.892 | 0.708 | 0.717 | 0.936 | 0.806 | 0.813 | 0.572 | 0.618
6 | LOU-NH91 | 0.544 | 0.539 | 0.47 | 0.506 | 0.52 | 0.504 | 0.492 | 0.513 | 0.442 | 0.481 | 0.721 | 0.664 | 0.695 | 0.658 | 0.561 | 0.561 | 0.506 | 0.514 | 0.519 | 0.48
7 | NCI-H2347 | 0.41 | 0.442 | 0.421 | 0.39 | 0.43 | 0.839 | 1.01 | 0.747 | 0.727 | 0.869 | 0.974 | 1.19 | 0.959 | 0.957 | 0.812 | 0.319 | 0.255 | 0.285 | 0.324 | 0.209
8 | NCI-H2126 | 0.338 | 0.332 | 0.363 | 0.347 | 0.408 | 1.1 | 1.22 | 1.15 | 1.02 | 1.14 | 0.824 | 0.788 | 0.768 | 0.729 | 0.757 | 0.581 | 0.58 | 0.568 | 0.506 | 0.488
9 | HCC-827 | 0.48 | 0.437 | 0.491 | 0.471 | 0.451 | 0.919 | 1.03 | 1.18 | 1.1 | 1.01 | 0.992 | 1.04 | 1.03 | 1.06 | 1.06 | 0.32 | 0.392 | 0.276 | 0.295 | 0.193
10 | NCI-H3122 | 0.169 | 0.164 | 0.227 | 0.182 | 0.163 | 1.12 | 1.02 | 1.04 | 1.11 | 1.05 | 0.79 | 0.856 | 0.806 | 0.717 | 0.869 | 0.905 | 0.833 | 0.614 | 0.84 | 0.64
11 | HOP-62 | 0.438 | 0.5 | 0.485 | 0.417 | 0.334 | 0.847 | 1.02 | 1.28 | 0.708 | 0.294 | 1.1 | 0.815 | 0.997 | 0.649 | 1.19 | 0.66 | 0.702 | 0.568 | 0.589 | 0.316
